Active and inactive are the calls of the source.
Experiments:
[1] = molecular target: E3 ubiquitin-protein ligase Mdm2/Protein Mdm4 (Homo sapiens, UniProt O15151+Q00987); assay: disruption of Mdm2/MdmX protein binding – luminescence detection, dose response (AID 504593); format: functional
[2] = viability loss of HPDE-C7K cells – cell-based, fluorescence, HTS, primary screen (AID 431); format: functional; settings: Homo sapiens
[3] = HPDE-C7 pancreatic duct cell viability loss – fluorescence, HTS (AID 430); format: functional, cell-based; settings: Homo sapiens
[4] = molecular target: Genome polyprotein (dengue virus type 2, UniProt P29990); assay: flavivirus cap methylation enzyme inhibition – biochemical, confirmation dose response, primary screen (AID 588689); format: functional
[5] = molecular target: Envelope glycoprotein gp160 (Human immunodeficiency virus 1, UniProt Q6QLK5); assay: cell-free HIV fusion peptide-binding blockers – biochemical, uHTS, fluorescence dequenching, […] (AID 1986)
[6] = molecular target: T1, Aminopeptidase N (Plasmodium falciparum FcB1/Columbia, UniProt O96935); assay: malaria alanyl aminopeptidase activity blockers – biochemical, fluorogenic H-Leu-NHMec substrate, 1536-well (AID 1445); parameters: species or system Plasmodium falciparum 3D7, 3D7
T1 sequence (O96935 whole entry): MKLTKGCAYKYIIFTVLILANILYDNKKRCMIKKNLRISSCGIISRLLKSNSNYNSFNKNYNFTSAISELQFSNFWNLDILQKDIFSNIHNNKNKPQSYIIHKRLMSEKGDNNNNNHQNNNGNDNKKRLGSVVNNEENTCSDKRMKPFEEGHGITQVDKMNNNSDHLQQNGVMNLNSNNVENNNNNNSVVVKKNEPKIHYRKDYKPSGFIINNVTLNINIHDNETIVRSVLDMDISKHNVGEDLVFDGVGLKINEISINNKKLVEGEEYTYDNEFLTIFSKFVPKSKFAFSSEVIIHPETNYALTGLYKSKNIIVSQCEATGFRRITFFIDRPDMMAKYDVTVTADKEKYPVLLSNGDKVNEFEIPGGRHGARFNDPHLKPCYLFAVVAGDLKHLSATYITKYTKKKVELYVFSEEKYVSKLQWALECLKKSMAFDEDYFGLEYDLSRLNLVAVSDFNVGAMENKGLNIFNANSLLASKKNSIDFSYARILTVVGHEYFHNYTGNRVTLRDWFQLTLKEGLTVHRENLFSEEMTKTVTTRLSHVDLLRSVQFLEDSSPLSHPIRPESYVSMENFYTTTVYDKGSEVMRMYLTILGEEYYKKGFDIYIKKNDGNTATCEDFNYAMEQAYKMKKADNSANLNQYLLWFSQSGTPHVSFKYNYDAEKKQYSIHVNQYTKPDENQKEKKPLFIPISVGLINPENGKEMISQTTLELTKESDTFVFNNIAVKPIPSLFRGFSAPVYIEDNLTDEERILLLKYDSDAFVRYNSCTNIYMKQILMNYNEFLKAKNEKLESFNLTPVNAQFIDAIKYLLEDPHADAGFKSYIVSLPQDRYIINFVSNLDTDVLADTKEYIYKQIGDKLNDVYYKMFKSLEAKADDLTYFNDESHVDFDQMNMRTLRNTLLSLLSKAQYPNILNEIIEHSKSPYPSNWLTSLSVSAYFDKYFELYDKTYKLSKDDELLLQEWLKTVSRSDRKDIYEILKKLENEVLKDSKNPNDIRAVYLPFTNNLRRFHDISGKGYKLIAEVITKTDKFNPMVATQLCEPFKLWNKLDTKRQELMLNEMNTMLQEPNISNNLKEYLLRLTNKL

[7] = molecular target: T2, Probable nicotinate-nucleotide adenylyltransferase (Staphylococcus aureus (strain N315), UniProt P65502); format: functional, Staphylococcus aureus subsp. aureus N315;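 as to IC50 Mean: confirmatory dose-response retesting of NadD inhibitor hits first found in an ultra-high-throughput screen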
[8] = molecular target: T2, Probable nicotinate-nucleotide adenylyltransferase; format: functional, Staphylococcus aureus subsp. aureus N315; settings: read-out: IC50_Mean
[9] = system: HEK293; assay: EBV LMP1 TES2 canonical NF-kB signalling blockers – cell-based, HEK293, luciferase, cherry-pick, dose response (AID 588343); format: functional; settings: Homo sapiens
[10] = molecular target: Cyclin-dependent kinase 5/CDK5 activator 1 (Homo sapiens, UniProt Q00535); assay: blockade of human CDK5 activity – biochemical, cherry-picked samples, set 2, dose response (AID 504545)
[11] = ADP-Glo luciferase signal interference – biochemical, luminescence, cherry-picked samples, set 2, artefact control for CDK5 inhibitor project, dose response (AID 504546); format: functional, cell-based
[12] = molecular target: T3, Microphthalmia-associated transcription factor (Homo sapiens, UniProt O75030); assay: reducers of TRPM1 reporter luminescence, concentration series – cell-based, SK-MEL-5, cherry-picked, set 3, MITF inhibitor project, dose response (AID 493073); format: functional;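 also: SK-MEL-5 melanoma cells with luciferase driven by the MITF target TRPM1 promoter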
T3 sequence (O75030 whole entry): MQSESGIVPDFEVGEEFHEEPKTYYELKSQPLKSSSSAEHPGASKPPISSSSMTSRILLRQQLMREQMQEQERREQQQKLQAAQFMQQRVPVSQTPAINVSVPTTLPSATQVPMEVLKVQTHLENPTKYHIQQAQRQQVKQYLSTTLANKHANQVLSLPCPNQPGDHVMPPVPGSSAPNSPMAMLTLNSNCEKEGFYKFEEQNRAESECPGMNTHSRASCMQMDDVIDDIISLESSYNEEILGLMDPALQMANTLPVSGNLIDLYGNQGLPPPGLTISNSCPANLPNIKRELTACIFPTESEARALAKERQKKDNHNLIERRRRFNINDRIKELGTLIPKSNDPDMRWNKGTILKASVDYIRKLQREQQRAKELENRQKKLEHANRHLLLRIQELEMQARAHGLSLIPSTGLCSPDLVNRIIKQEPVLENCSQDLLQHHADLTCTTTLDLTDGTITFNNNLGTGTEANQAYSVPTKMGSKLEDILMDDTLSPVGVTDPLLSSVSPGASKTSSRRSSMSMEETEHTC

[13] = molecular target: Lysosomal acid glucosylceramidase (Homo sapiens, UniProt P04062); assay: Dose response cell-based high throughput screening assay to identify enhancers of beta-glucosidase activity. [Related pubchem assays: 784 ]; format: functional
[14] = system: Streptococcus; assay: Luminescence Microorganism-Based Dose Response Follow up to Identify Compounds Cytotoxic to Streptococcus. [Related pubchem assays: 1677 (Project Summary), 1915, 1914, 1902 (Retest at Dose), 1900 (Counter Screen), 1662 (Primary HTS)]; format: functional, organism-based
[15] = A Cell Based Secondary Assay To Explore Cytotoxicity of Compounds that Sensitize Mycobacterium Tuberculosis to Beta-Lactam Antibiotics.; format: functional
[16] = molecular target: Cytochrome P450 2D6 (Homo sapiens, UniProt P10635);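 also: CYP2D6 member of a cytochrome P450 panel assay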
[17] = molecular target: T4, Carboxy-terminal domain RNA polymerase II polypeptide A small phosphatase 1 (Homo sapiens, UniProt Q9GZU7); assay: CTDSP1 inhibitors, concentration-response, biochemical, absorbance readout, ultra-high-throughput screen actives (AID 540297); format: functional
T4 sequence (Q9GZU7 whole entry): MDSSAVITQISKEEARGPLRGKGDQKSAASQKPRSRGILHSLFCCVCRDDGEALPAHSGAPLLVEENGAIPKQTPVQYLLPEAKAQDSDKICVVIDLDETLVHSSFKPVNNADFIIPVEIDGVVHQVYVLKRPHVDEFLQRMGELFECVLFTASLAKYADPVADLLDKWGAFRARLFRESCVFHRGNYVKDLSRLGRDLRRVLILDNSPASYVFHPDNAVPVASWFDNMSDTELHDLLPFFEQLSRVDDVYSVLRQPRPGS

[18] = molecular target: Glucose-6-phosphate 1-dehydrogenase (Homo sapiens, UniProt P11413); assay: inhibition of Homo sapiens G6PD, dose series – biochemical, fluorescence, selectivity assay for P. falciparum G6PD inhibitor project, dose response (AID 504792); format: functional
[19] = molecular target: T5, Endoribonuclease toxin MazF (Escherichia coli K-12, UniProt P0AE70); assay: activation of MazEF endoribonuclease cleavage – biochemical, fluorescence, single-stranded RNA substrate, uHTS hits, dose response (AID 588481); format: functional
T5 sequence (P0AE70 whole entry): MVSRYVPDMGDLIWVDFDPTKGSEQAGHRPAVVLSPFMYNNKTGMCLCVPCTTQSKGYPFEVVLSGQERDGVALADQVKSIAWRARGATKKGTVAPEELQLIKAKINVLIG

[20] = molecular target: T5, Endoribonuclease toxin MazF; assay: substrate-only fluorescence increase artefacts – biochemical, single-stranded RNase substrate, counter-screen for MazEF activator project, dose response (AID 588502); format: functional
[21] = molecular target: Heat shock protein HSP 90-alpha (Homo sapiens, UniProt P07900); format: functional, organism-based
[22] = molecular target: T6, Heat shock factor protein 1 (Mus musculus, UniProt P38532); assay: enhancement of HSF1-driven luciferase signal – cell-based, NIH3T3, luminescence, dose retest, confirmation (AID 435004); format: functional;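 also: stress induced by proteasome inhibitor MG132 added 30 min after compound; luciferase reporter driven by HSF1 response element in NIH3T3 cells; actives raise luminescence as potentiators of the MG132 stress response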
T6 sequence (P38532 whole entry): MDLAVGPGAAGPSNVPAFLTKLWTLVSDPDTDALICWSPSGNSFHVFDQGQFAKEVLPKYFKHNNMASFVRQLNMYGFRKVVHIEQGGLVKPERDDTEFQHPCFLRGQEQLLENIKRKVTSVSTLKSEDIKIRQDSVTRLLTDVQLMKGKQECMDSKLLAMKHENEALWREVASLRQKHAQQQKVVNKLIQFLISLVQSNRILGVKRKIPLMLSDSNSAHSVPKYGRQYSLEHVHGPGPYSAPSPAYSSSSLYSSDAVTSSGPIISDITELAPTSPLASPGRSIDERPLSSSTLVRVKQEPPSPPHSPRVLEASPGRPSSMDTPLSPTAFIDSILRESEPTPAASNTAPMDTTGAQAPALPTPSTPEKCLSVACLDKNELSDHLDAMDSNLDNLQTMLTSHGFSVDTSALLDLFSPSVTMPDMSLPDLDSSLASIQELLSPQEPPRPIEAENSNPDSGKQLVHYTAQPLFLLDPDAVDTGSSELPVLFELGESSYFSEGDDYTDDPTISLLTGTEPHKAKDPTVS

[23] = molecular target: NS3 (Hepatitis C virus, UniProt A3EZJ3); assay: PubChem AID 2173; parameters: species or system Hepacivirus hominis
[24] = molecular target: T7, Caspase-6 (Homo sapiens, UniProt P55212); assay: inhibition of CASP6 peptide cleavage – biochemical, VEID-R110 fluorescence, cherry-pick, dose response (AID 720632)
T7 sequence (P55212 whole entry): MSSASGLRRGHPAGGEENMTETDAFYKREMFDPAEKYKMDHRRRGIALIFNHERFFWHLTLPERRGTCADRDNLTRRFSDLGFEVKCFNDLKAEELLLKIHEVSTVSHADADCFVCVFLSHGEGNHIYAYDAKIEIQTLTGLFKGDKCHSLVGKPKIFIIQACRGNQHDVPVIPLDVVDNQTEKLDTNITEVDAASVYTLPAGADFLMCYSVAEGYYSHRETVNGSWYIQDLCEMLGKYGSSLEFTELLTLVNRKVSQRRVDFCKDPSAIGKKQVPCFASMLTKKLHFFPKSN

[25] = molecular target: CAAX prenyl protease 2 (Saccharomyces cerevisiae S288c, UniProt Q03530); format: biochemical
[26] = molecular target: T8, Voltage-gated N-type calcium channel alpha-1B subunit/Amyloid beta A4 precursor protein-binding family A member 1 (Homo sapiens, UniProt Q00975+Q02410); assay: disruptors of Mint-PDZ/N-type channel peptide interaction – biochemical, HTRF, set 2, SAR follow-up (AID 434980); format: functional
[27] = molecular target: T8, Voltage-gated N-type calcium channel alpha-1B subunit/Amyloid beta A4 precursor protein-binding family A member 1; assay: disruptors of Mint-PDZ/N-type channel peptide interaction – biochemical, HTRF, SAR follow-up (AID 2489); format: functional

T8 sequence (Q00975 whole entry): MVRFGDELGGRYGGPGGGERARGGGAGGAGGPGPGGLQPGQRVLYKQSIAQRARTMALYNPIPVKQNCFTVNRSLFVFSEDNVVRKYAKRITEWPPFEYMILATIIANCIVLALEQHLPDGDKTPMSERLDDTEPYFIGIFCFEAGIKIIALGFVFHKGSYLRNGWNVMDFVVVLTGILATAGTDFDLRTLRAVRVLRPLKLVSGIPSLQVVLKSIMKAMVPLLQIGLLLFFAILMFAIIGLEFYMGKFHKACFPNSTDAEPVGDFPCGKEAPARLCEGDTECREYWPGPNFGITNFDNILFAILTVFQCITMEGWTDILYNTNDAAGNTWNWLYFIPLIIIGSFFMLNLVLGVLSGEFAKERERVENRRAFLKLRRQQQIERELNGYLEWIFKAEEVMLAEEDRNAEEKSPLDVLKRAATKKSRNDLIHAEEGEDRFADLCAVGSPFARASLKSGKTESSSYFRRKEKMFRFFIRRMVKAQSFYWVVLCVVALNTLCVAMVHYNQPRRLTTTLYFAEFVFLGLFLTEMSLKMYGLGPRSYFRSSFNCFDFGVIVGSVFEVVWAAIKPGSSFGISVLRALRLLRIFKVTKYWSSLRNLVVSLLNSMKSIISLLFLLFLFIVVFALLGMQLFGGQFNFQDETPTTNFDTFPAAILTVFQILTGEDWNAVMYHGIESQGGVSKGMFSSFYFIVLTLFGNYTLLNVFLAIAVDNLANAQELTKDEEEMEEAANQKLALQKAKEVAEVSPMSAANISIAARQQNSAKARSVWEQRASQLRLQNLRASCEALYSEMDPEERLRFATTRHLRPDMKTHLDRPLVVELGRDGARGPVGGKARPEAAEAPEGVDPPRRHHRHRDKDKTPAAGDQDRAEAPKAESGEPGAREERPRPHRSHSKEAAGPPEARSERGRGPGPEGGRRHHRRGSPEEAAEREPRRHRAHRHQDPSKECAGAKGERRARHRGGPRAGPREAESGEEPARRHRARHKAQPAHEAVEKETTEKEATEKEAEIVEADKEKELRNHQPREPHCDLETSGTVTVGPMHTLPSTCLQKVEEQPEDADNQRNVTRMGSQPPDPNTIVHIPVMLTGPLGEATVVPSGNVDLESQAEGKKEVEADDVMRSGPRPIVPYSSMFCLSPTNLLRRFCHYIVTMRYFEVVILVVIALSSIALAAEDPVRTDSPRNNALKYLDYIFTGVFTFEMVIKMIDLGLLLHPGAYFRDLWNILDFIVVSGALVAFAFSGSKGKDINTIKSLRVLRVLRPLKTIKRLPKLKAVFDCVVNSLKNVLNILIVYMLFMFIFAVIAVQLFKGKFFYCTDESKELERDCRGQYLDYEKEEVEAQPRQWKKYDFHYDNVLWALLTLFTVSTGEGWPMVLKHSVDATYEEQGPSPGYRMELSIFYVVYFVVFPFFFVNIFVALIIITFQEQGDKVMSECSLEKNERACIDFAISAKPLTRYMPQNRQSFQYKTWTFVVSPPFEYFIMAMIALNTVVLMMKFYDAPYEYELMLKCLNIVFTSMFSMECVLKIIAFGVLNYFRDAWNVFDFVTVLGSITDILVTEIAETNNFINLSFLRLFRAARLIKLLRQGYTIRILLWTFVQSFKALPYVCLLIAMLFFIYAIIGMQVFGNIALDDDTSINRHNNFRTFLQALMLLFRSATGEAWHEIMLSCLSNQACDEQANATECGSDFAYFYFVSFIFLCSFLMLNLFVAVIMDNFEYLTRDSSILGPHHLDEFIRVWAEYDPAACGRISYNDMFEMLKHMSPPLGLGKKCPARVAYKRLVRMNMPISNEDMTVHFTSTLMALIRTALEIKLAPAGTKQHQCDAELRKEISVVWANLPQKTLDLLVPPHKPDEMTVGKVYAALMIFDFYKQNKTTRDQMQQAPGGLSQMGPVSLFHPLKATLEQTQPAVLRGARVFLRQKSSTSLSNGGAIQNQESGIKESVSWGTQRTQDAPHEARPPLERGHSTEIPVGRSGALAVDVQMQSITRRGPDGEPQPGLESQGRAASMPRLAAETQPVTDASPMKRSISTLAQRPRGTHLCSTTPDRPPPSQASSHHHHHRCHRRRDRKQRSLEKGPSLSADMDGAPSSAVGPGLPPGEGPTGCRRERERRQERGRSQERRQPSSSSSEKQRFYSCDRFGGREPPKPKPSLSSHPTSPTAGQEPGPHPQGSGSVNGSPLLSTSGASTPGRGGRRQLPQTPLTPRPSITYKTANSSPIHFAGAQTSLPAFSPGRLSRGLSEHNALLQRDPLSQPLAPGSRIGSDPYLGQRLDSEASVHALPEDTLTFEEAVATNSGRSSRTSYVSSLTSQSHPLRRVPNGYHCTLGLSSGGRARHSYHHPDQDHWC
T8 sequence (Q02410 whole entry): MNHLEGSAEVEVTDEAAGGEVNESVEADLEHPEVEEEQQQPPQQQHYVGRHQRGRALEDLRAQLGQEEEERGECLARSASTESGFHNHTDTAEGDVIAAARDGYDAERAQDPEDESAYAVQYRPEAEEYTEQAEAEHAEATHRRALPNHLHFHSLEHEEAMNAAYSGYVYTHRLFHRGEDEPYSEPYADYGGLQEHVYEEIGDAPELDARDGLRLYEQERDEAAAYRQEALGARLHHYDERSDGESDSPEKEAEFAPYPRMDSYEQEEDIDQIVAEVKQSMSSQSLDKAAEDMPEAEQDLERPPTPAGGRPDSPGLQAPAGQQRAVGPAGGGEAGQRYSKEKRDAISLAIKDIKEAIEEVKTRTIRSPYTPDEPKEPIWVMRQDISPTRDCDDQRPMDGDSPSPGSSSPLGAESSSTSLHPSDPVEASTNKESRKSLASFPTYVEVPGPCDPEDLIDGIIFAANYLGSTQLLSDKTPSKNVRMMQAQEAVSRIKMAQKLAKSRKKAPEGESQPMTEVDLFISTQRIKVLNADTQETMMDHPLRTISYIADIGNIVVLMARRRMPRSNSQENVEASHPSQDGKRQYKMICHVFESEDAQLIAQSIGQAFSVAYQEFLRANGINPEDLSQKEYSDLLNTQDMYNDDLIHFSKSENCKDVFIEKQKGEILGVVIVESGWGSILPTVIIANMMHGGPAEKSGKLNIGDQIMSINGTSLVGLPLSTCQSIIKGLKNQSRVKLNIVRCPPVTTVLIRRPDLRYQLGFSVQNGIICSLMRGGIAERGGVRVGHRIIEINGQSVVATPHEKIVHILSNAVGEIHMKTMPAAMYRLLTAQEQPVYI
Lysosomal acid glucosylceramidase, sequence (P04062 whole entry): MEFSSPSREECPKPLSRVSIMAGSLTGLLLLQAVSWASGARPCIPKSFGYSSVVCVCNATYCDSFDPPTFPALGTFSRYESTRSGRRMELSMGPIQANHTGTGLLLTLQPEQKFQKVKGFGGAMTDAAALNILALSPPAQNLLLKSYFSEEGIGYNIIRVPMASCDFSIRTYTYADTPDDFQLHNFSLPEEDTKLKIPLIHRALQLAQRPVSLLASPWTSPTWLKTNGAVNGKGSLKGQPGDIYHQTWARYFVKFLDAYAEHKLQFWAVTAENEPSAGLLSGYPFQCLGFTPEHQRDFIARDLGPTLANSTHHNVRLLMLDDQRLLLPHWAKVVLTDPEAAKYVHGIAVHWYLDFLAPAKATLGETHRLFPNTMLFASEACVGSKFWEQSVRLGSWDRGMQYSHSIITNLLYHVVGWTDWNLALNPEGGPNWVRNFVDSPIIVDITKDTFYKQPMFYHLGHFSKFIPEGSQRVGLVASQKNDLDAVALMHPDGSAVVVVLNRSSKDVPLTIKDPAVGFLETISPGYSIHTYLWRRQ
Envelope glycoprotein gp160, sequence (Q6QLK5 whole entry, the tested form may be a part): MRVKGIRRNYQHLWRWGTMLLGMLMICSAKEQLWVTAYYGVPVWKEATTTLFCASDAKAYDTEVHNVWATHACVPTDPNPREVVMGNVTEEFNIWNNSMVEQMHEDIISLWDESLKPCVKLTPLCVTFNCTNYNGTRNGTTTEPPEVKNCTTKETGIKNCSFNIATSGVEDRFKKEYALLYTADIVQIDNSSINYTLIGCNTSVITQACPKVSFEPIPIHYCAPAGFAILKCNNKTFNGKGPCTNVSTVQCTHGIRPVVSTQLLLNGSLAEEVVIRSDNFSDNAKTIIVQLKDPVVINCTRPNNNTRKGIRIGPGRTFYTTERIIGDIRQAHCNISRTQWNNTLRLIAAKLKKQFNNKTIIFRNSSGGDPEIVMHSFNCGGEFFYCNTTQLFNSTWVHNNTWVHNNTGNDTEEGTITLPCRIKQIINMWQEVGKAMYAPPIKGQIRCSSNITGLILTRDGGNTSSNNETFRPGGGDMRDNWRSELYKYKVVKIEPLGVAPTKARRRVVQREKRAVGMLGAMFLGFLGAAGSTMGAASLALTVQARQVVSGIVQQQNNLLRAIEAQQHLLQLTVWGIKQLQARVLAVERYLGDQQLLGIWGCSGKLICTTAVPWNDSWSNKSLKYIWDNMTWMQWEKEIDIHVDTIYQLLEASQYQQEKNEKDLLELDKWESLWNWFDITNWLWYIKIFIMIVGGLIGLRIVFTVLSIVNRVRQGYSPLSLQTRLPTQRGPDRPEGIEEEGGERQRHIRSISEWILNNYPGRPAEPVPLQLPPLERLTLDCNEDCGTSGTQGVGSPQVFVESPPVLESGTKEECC
T2 sequence (P65502 whole entry): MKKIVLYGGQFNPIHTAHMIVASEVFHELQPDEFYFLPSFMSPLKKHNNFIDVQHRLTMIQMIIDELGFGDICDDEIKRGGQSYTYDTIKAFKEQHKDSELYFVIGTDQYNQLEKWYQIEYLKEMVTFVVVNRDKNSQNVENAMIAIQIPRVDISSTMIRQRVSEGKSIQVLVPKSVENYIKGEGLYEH
CAAX prenyl protease 2, sequence (Q03530 whole entry): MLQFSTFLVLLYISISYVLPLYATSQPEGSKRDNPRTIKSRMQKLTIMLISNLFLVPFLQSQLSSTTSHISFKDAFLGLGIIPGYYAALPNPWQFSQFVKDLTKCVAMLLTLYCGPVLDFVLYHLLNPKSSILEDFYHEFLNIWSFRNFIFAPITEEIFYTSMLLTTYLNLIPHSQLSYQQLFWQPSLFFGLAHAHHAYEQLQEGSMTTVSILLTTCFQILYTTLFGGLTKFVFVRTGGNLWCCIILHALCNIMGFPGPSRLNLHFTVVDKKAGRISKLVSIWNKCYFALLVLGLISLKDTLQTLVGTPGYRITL

COc1ccc2c(c1)C1(Nc3ccccc3-c3nc4ccccc4n31)C(=O)N2C (configuration not stated)
IC50 [1]: 2.85 µM (active) | EC50 [2]: > 20 µM (not active) | EC50 [3]: > 20 µM (not active)

CCc1nnc(NS(=O)(=O)c2ccc(NC(=S)NC(=O)/C=C/c3ccc(F)cc3)cc2)s1
IC50 [4]: 39.3 µM (active) | IC50 [5]: 18.3 µM (active) | IC50 [6]: 76.7 µM (active) | IC50 [7]: 4.58 µM (active) | IC50 [8]: 45.4 µM (active)

N=C(NOC(=O)c1ccccc1)c1ccccn1
AC50 [9]: 8.6 µM (active) | AC50 [10]: 20.6 µM (active) | AC50 [11]: 37.5 µM (active) | AC50 [12]: 11.9 µM (active)

Cc1cccc2sc(NC(=O)CN(C)S(=O)(=O)c3cccs3)nc12
EC50 [13]: > 10 µM (not active)

CN(C)c1ccc(C(=O)n2c3ccccc3c3ccccc32)cc1
EC50 [14]: > 500 µM (not active)

CCCCN(CC)S(=O)(=O)c1ccc(C(=O)Nc2nnc(CSC)o2)cc1
CC50 [15]: 13.9 µM (active) | AC50 [16]: 35.5 µM (inconclusive) | EC50 [13]: > 10 µM (not active)

O=C(O)CCN1C(=O)/C(=C2\C(=O)N(Cc3ccc(F)cc3)c3ccccc32)SC1=S
IC50 [4]: 41.2 µM (active) | IC50 [5]: > 99 µM (inactive) | IC50 [17]: 3.03 µM (active)

CC1=CN2C(=N)/C(=C/c3ccc([N+](=O)[O-])o3)C(=O)N=C2S1
IC50 [18]: > 80 µM (inactive) | EC50 [19]: > 99 µM (inactive) | EC50 [20]: 23.8 µM (inactive) | AC50 [21]: 2.57 µM (active) | EC50 [22]: 30.1 µM (inconclusive) | IC50 [23]: 9.08 µM (active) | AC50 [24]: 5.85 µM (active)

C[C@@]12CCC=C[C@H]1[C@H](c1ccc(/C=C/c3ccccc3)cc1F)N(Cc1ccccc1)C2=O
AC50 [25]: 45.9 µM (active)

CC12C=CC(C)(O1)C1C(=O)N(c3ccc4c(c3)OCO4)C(=O)C12 (configuration not stated)
IC50 [26]: > 56.8 µM (inactive) | IC50 [27]: > 56.8 µM (inactive)

O=C(NCCc1cccc(Cl)c1)c1cc(-c2ccco2)nc2ccccc12
IC50 [26]: > 56.8 µM (inactive) | IC50 [27]: > 56.8 µM (inactive)

From ChEMBL document CHEMBL1201862, “PubChem BioAssay data set” (2004)
